Results published in PubChem BioAssay AID2842 (Southern Research Institute, 2010).
≈ marks a conversion by molar mass, not a printed value.

system: M. tuberculosis H37Rv growth inhibition; assay: Mycobacterium tuberculosis H37Rv growth inhibition, putative kinase inhibitor library, confirmatory dose response (AID 2842);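 further: bacteria incubated one week before Alamar blue readout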

| SMILES | IC90 [µg/mL] |
| --- | --- |
| Cc1cc(C)c(-c2csc(NC(=O)c3ccc4c(c3)OCCO4)n2)c(C)c1 | 7.63 (≈ 20.1 µM) |
| Cc1ccc(C)c(C(=O)Nc2nnc(-c3ccc(C)c(C)c3)o2)c1 | 2.66 (≈ 8.28 µM) |
| CCCc1cc(-c2nc(N)ncc2-c2ccc3c(c2)OCO3)c(O)cc1OC | 17.6 (≈ 46.4 µM) |
| COc1ccc(-c2nnc3c4cc(OC)c(OC)cc4n(Cc4ccccc4)cc2-3)cc1 | 11 (≈ 25.8 µM) |
| CCOC(=O)COc1cccc(/C=C2\Oc3cc(OC)ccc3C2=O)c1 | 3.52 (≈ 9.93 µM) |
| O=C(c1ccco1)N(CCCn1ccnc1)c1nc2c(F)cc(F)cc2s1 | 0.75 (≈ 1.93 µM) |
| O=C1CN(C(=O)c2cc(Br)ccc2Cl)C(c2ccccc2)c2cc(F)ccc2N1 (centres undefined) | 26.1 (≈ 55 µM) |
| O=C(COc1ccccc1)Nc1nnc(-c2ccc3c(c2)CCCC3)o1 | 6.48 (≈ 18.5 µM) |
| CCc1cccc2sc(N(CCCn3ccnc3)C(=O)c3cccs3)nc12 | 0.34 (≈ 0.857 µM) |
| Clc1ccc(Nc2ccc(NCc3ccccc3)nn2)cc1 | 5.5 (≈ 17.7 µM) |
| Fc1cccc2sc(N3CCCC3)nc12 | 86.3 (≈ 388 µM) |
| COC(=O)CSc1ncnc2c1nnn2Cc1ccc(F)cc1 | 1.55 (≈ 4.65 µM) |
| CCCC(=O)Nc1nnc(-c2ccc(C)cc2C)o1 | 2.25 (≈ 8.68 µM) |
| Cc1ccc2sc(N(CCCn3ccnc3)C(=O)COc3ccccc3)nc2c1C | 5.39 (≈ 12.8 µM) |
| O=C(Nc1nnc(-c2cc(Cl)ccc2Cl)o1)c1ccccc1Br | 1.6 (≈ 3.87 µM) |
| COC(=O)CSCC(=O)Nc1nnc(-c2ccccc2C)s1 | 13.7 (≈ 40.7 µM) |
| Cc1ccc(-c2nnc3c4cc5c(cc4n(Cc4cccc(C)c4)cc2-3)OCCO5)cc1 | 5.76 (≈ 13.7 µM) |
| O=C(Cc1ccc(-c2ccccc2)cc1)Nc1nnc2n1CCS2 | 13.5 (≈ 40.2 µM) |
| CC1(C)COCN1S(=O)(=O)c1ccc(C(=O)Nc2nnc(-c3ccc(F)cc3)o2)cc1 | 23.3 (≈ 52.1 µM) |
| O=C(CSc1ncnc2c1nnn2Cc1ccc(F)cc1)N1CCOCC1 | 19.8 (≈ 50.9 µM) |
| Cc1ccc(C)c(-c2nnc(NC(=O)c3ccc([N+](=O)[O-])s3)o2)c1 | 3.09 (≈ 8.97 µM) |
| Cc1ccc(-n2ccnc(NCC(C)c3ccccc3)c2=O)cc1C (centres undefined) | 18.1 (≈ 54.4 µM) |
| O=C(CSc1nnc(-c2cccnc2)o1)N1CCC(Cc2ccccc2)CC1 | 0.87 (≈ 2.21 µM) |

| SMILES | IC90 [µg/mL] |
| --- | --- |
| CCOc1ccc2c(c1)O/C(=C\c1cccc(OCC(=O)OC)c1)C2=O | 1.66 (≈ 4.68 µM) |
| Cc1ccc(C)c(-c2nnc(NC(=O)c3ccc(S(=O)(=O)N(C)C4CCCCC4)cc3)o2)c1 | 58.3 (≈ 124 µM) |
| COc1cccc(OCCN2CCN(c3cc(C)nc4c(-c5ccccc5)cnn34)CC2)c1 | 12 (≈ 27 µM) |
| O=S(=O)(Nc1cc(Cl)c(O)c2ccccc12)c1ccc(F)cc1 | 6.28 (≈ 17.9 µM) |
| N#Cc1c(NC(=O)c2cc(Cl)ccc2Cl)sc2c1CCN(Cc1ccccc1)C2 | 12.3 (≈ 27.8 µM) |
| O=C(Nc1nnc(-c2ccc(Cl)s2)o1)C1CC1 | 26.8 (≈ 99.3 µM) |
| O=C(CCSc1ccccc1)Nc1nnc(-c2cccs2)o1 | 7.87 (≈ 23.7 µM) |
| O=C(Nc1nnc(C2=COCCO2)o1)c1cccc(Cl)c1 | 3.49 (≈ 11.3 µM) |
| COC(=O)CSc1ncnc2c1cnn2-c1ccc(F)cc1 | 4.54 (≈ 14.3 µM) |
| Cc1cc(C)cc(Nc2nc(Nc3ccc(F)cc3)nc(N3CCOCC3)n2)c1 | 11.1 (≈ 28 µM) |
| O=C1CN(C(=O)c2cccc3ccccc23)C(c2ccc(F)cc2)c2cc(Br)ccc2N1 (centres undefined) | 10.2 (≈ 20.8 µM) |
| COC(=O)COc1cccc(/C=C2\Oc3cc(OC)ccc3C2=O)c1 | 17.3 (≈ 50.7 µM) |
| CCOc1ccc2nc(N(CCCn3ccnc3)C(=O)c3ccc(F)cc3)sc2c1 | 7.77 (≈ 18.3 µM) |
| COC(=O)c1ccc(NC(=O)CSc2nc(-c3ccc(C)cc3)ns2)cc1 | 21.3 (≈ 53.4 µM) |
| Cc1cn2c3c(=O)[nH]c(=O)n(C)c3nc2n1CCCNc1ccccc1 | 3.69 (≈ 10.5 µM) |
| O=C(c1ccco1)N(CCCn1ccnc1)c1nc2ccc(Cl)cc2s1 | 0.89 (≈ 2.3 µM) |
| CCOC(=O)N1CCc2c(sc(NC(=O)CCSc3ccccc3)c2C(N)=O)C1 | 8.5 (≈ 19.6 µM) |
| O=C(NNc1nc2c(F)cc(F)cc2s1)c1nc2ccccc2s1 | 21.8 (≈ 60.2 µM) |
| CC(C)(C)C(=O)Nc1nnc(-c2cc(Cl)ccc2Cl)o1 | < 0.2 |
| O=C1N/C(=N\N=C\c2ccccc2O)SC1Cc1ccc(F)cc1 (centres undefined) | < 0.2 |
| COc1ccc2sc(Nc3nnc(-c4ccco4)o3)nc2c1 | 80 (≈ 255 µM) |
| CN(C)S(=O)(=O)c1ccc(C(=O)N2CC(=O)Nc3ccc(Br)cc3C2c2ccccc2)cc1 (centres undefined) | 35.3 (≈ 66.8 µM) |
| Cc1ccc(C(=O)Nc2nnc(-c3ccncc3)o2)cc1 | 13.4 (≈ 47.7 µM) |

| SMILES | IC90 [µg/mL] |
| --- | --- |
| Cc1c(C)n2c3c(=O)[nH]c(=O)n(C)c3nc2n1CCCNc1ccccc1Cl | 25.4 (≈ 63.4 µM) |
| OCc1nc2ccccc2n1CC(O)COc1ccc(Br)cc1 (centres undefined) | 10.2 (≈ 27 µM) |
| CCC(=O)Nc1nnc(-c2cccs2)o1 | 17.1 (≈ 76.8 µM) |
| Cc1ccc(C)c2sc(N(CCCn3ccnc3)C(=O)c3ccc(F)cc3)nc12 | 4.35 (≈ 10.6 µM) |
| Cc1ccc(-c2nnc(NC(=O)c3ccc(S(=O)(=O)N4CCC(C)CC4)cc3)o2)c(C)c1 | 46.7 (≈ 103 µM) |
| COc1ccc2c(c1)c1nnc(-c3ccc(C)cc3)c-1cn2Cc1ccccc1OC | 4.23 (≈ 10.3 µM) |
| Cc1ccc(C)c(-c2nnc(NC(=O)c3ccc(S(=O)(=O)N(C)c4ccccc4)cc3)o2)c1 | 13.3 (≈ 28.8 µM) |
| CSc1ccccc1-c1nnc(NC(=O)c2cc([N+](=O)[O-])ccc2Cl)o1 | 2.12 (≈ 5.42 µM) |
| Cc1ccc(NC(=O)c2oc3ccccc3c2NC(=O)CCl)cc1C | 10.2 (≈ 28.5 µM) |
| Cc1ccc(C)c(-c2nnc(NC(=O)c3ccc(Br)s3)o2)c1 | 6.75 (≈ 17.8 µM) |
| CCN1C(=O)c2cccc3c(NC(=O)c4ccc(Cl)s4)ccc1c23 | 8.65 (≈ 24.2 µM) |
| Cc1ccc(-c2nnc(NC(=O)c3ccccc3)o2)c(C)c1 | 8.78 (≈ 29.9 µM) |
| Cc1cccc2sc(NNC(=O)c3cccc(F)c3)nc12 | 9.09 (≈ 30.2 µM) |
| Cc1ccc(Nc2nc(N3CCN(Cc4ccccc4)CC3)nc3nccnc23)cc1Cl | 2.67 (≈ 5.99 µM) |
| CC(C)N1CCc2c(sc(NC(=O)c3cc4c(ccc5ccccc54)oc3=O)c2C(N)=O)C1 | 40.2 (≈ 87 µM) |
| CCCOc1ccc(S(=O)(=O)Nc2ccc3c(c2)CCC(=O)N3CC)cc1 | 13 (≈ 33.5 µM) |
| CC(C)(C)c1ccc(C(=O)Nc2nnc(-c3ccc(S(C)(=O)=O)cc3)o2)cc1 | 24.6 (≈ 61.7 µM) |
| Cc1ccc(-c2nnc(NC(=O)c3ccco3)o2)c(C)c1 | 4.51 (≈ 15.9 µM) |
| NC(=O)c1c(Nc2nc3ccc(F)cc3s2)sc2c1CCCC2 | 51.3 (≈ 148 µM) |
| CCCCC(=O)Nc1nnc(-c2ccc3c(c2)OCCO3)o1 | 9.06 (≈ 29.9 µM) |
| CCc1ccc(-c2ccc(SCC(N)=O)nn2)cc1 | 4.66 (≈ 17 µM) |
| CCOc1cc(-c2nnc(NC(=O)c3ccccc3Cl)o2)cc(OCC)c1OCC | 1.61 (≈ 3.73 µM) |
| COc1cc2c3nnc(-c4ccc(F)cc4)c-3cn(Cc3ccccc3)c2cc1OC | 12 (≈ 29 µM) |

| SMILES | IC90 [µg/mL] |
| --- | --- |
| O=C(Nc1nnc(-c2cccs2)o1)C1CCCCC1 | 26.9 (≈ 97.1 µM) |
| COc1cc(C(=O)Nc2nnc(-c3cc(Cl)ccc3Cl)o2)cc(OC)c1OC | 28.3 (≈ 66.7 µM) |
| N#C/C(=C\Nc1ccccc1)c1nc2ccccc2[nH]1 | 3.25 (≈ 12.5 µM) |
| CCOc1ccc2c(c1)c1nnc(-c3ccc(OC)cc3)c-1cn2Cc1ccccc1F | 4.73 (≈ 11.1 µM) |
| O=C(Nc1nnc(-c2ccc(Br)cc2)o1)c1ccccc1F | 4.4 (≈ 12.1 µM) |
| Cc1ccc2sc(NNC(=O)c3cc4ccccc4oc3=O)nc2c1C | 4.21 (≈ 11.5 µM) |
| Cc1ccc(C)c(-c2nnc(NC(=O)COc3ccccc3)o2)c1 | 2.24 (≈ 6.93 µM) |
| O=C(OCn1nnc2ccccc2c1=O)C(c1ccccc1)c1ccccc1 | 8.87 (≈ 23.9 µM) |
| CCN(c1ccccc1)S(=O)(=O)c1ccc(C(=O)Nc2ccc3ncsc3c2)cc1 | 14.7 (≈ 33.5 µM) |
| Cc1ccc(-c2nnc(NC(=O)c3ccc([N+](=O)[O-])o3)o2)c(C)c1 | 0.69 (≈ 2.1 µM) |
| Fc1ccc2nc(Nc3nc(-c4ccc(Cl)s4)cs3)sc2c1 | 7.87 (≈ 21.4 µM) |
| N=c1nnc2c3ccccc3ccc2n1O | 41.3 (≈ 195 µM) |
| COc1ccccc1Nc1nc(NCc2ccco2)c2ccccc2n1 | 5.62 (≈ 16.2 µM) |
| CC(C)(C)C1CCc2c(sc3nnn(CC(=O)NCc4ccco4)c(=O)c23)C1 (centres undefined) | 22.3 (≈ 55.7 µM) |
| Cc1[nH]c2ccccc2c1/C=N/NC(=O)c1cc(-c2ccc(Br)s2)[nH]n1 | 12.2 (≈ 28.6 µM) |
| COc1ccc(-c2noc(-c3cc(C(C)C)[nH]n3)n2)cc1 | 12.2 (≈ 42.8 µM) |
| Cc1cccc(N2CCN(C(=O)CCCCCn3c(=O)[nH]c4ccsc4c3=O)CC2C)c1 (centres undefined) | 19.5 (≈ 42.9 µM) |
| O=C(c1ccc(NC2=C(Cl)C(=O)N(Cc3ccccc3)C2=O)cc1)N1CCCCCC1 | 11.2 (≈ 25.5 µM) |
| O=C(Nc1cccc(-c2ccc3nnc(-c4cccnc4)n3n2)c1)c1ccc(F)cc1F | 27.6 (≈ 64.5 µM) |
| O=C(Nc1nnc(-c2ccc(Cl)s2)o1)c1ccc(Br)s1 | 11.6 (≈ 29.8 µM) |
| COc1ccccc1-c1cnn2c(Nc3cccc(Cl)c3)cc(C)nc12 | 1.72 (≈ 4.71 µM) |
| CCOc1ccc(-c2nnc3c4cc5c(cc4n(Cc4cccc(OC)c4)cc2-3)OCCO5)cc1 | 3.52 (≈ 7.53 µM) |
| CCOC(=O)N1CCN(c2ncnc3c2cnn3-c2ccc(C)cc2)CC1 | 21.4 (≈ 58.5 µM) |

| SMILES | IC90 [µg/mL] |
| --- | --- |
| COc1cccc(-c2csc(NC(=O)c3ccc4c(c3)OCCO4)n2)c1 | 14.3 (≈ 39 µM) |
| N#CC1=C(N)OC2=C(C(=O)CC(c3ccccc3)C2)C1C1CCCCC1 (centres undefined) | 7.8 (≈ 22.4 µM) |
| COc1cccc2sc(Nc3nc4c(s3)C(=O)CC(C)(C)C4)nc12 | 7.52 (≈ 20.9 µM) |
| CC1CCN(S(=O)(=O)c2ccc(C(=O)Nc3nnc(-c4cc(Cl)ccc4Cl)o3)cc2)CC1 | 35.4 (≈ 71.5 µM) |
| CSc1cccc2sc(Nc3ccc(Cl)cc3)nc12 | 2.31 (≈ 7.53 µM) |
| O=C(CCSc1ccccc1)Nc1nnc(-c2ccc3c(c2)CCCC3)o1 | 1.93 (≈ 5.09 µM) |
| O=C(Nc1nnc(-c2ccc(F)cc2)o1)c1ccc(Br)s1 | < 0.2 |
| N#C/C(=C\c1ccc([N+](=O)[O-])cc1)c1nc2ccccc2[nH]1 | 6.12 (≈ 21.1 µM) |
| CCOC(=O)c1c(NC(=O)/C=C/C(N)=O)sc2c1CCCC2 | 6.76 (≈ 21 µM) |
| O=C(c1cccs1)N(CCCn1ccnc1)c1nc2c(F)cc(F)cc2s1 | 2.38 (≈ 5.88 µM) |
| CCC(=O)Nc1nnc(-c2ccc(Br)cc2)o1 | 6.26 (≈ 21.1 µM) |
| Cc1ccc(C)c(-c2nnc(NC(=O)c3ccc([N+](=O)[O-])o3)o2)c1 | 1.29 (≈ 3.93 µM) |
| O=C(CCc1ccccc1)Nc1nnc(-c2ccc3c(c2)CCCC3)o1 | 30 (≈ 86.2 µM) |
| O=C(/C=C/c1cccs1)Nc1nnc(-c2ccco2)o1 | 5.99 (≈ 20.8 µM) |
| CN1C(=O)c2cccc(NC(=O)c3ccc([N+](=O)[O-])s3)c2C1=O | 25.1 (≈ 75.7 µM) |
| Cc1cccc(Cn2cc3c(-c4ccc(C)c(C)c4)nnc-3c3cc4c(cc32)OCCO4)c1 | 3.47 (≈ 7.97 µM) |
| COc1cccc2sc(N(CCCn3ccnc3)C(=O)Cc3ccc(F)cc3)nc12 | 3.48 (≈ 8.2 µM) |
| O=C(Nc1nnc(-c2cc(Cl)ccc2Cl)o1)c1ccc(Br)s1 | 2.65 (≈ 6.32 µM) |
| O=C(Nc1nnc(-c2ccc3c(c2)CCCC3)o1)c1ccc(F)cc1 | 21.6 (≈ 64 µM) |
| Cc1ccc(-c2nnc(NC(=O)C(C)C)o2)c(C)c1 | 8.43 (≈ 32.5 µM) |
| CCOc1cccc2sc(Nc3nc4ccc(OC)cc4s3)nc12 | 3.19 (≈ 8.92 µM) |
| O=C(CS(=O)(=O)c1ccccc1)Nc1nc(-c2ccc3c(c2)CCCC3)cs1 | 1.02 (≈ 2.47 µM) |
